Data from US11807668B2, “Use of citronellol in preparing preparation for promoting expression of virulence gene Toxa of Pseudomonas aeruginosa” (priority 2021, dated 2023).

Tests used:
[1] = system: Pseudomonas aeruginosa PAO1; assay: Effects of citronellol on the growth of Pseudomonas aeruginosa PAO1 (growth curve, OD600, Bioscreen C); type: cell-based
Protocol: (§1) Preparation of PAO1[(Pseudomonas aeruginosa) PAO1] bacterial suspension: a culture solution of Pseudomonas aeruginosa PAO1 in an exponential growth phase was sampled, centrifuged, washed once with a PBS buffer, resuspended in PBS, and diluted to 10^8 CFU/mL to obtain the PAO1 bacterial suspension.
An LB culture medium and citronellol […] were added to test tubes respectively, and the PAO1 bacterial suspension in the exponential growth phase was inoculated to reach a total volume of 10 mL respectively. The bacterial concentration of PAO1 was each 10^6′ CFU/mL, and the concentration of citronellol was 0 (control), 0.313 μL/mL, 0.625 μL/mL, 1.25 μL/mL, and 2.5 μL/mL, respectively. Samples from several test groups were added to a honeycomb culture plate dedicated to an automatic growth curve analyzer (Bioscreen C), and 350 μL of culture solution was added to each well, with three parallel for each test group. The honeycomb culture plate was placed in the automatic growth curve analyzer, and cultured over shaking at 37° C. for 3 days, and OD600 was measured every hour. Taking OD600 as the ordinate and a culture time as the abscissa, the growth curve of PAO1 under the action of citronellol was drawn to study the effect of the citronellol on the growth of PAO1. The results were shown as in FIG. 1.

[2] = system: key genes of a quorum-sensing system of Pseudomonas aeruginosa and virulence genes regulated thereby (PAO1 cells); assay: Effects of citronellol on the expression of key quorum-sensing genes and virulence genes regulated thereby (real-time fluorescent quantitative PCR); type: cell-based; conditions: 1.25 μL/mL citronellol for 5 h
Protocol: as §1
The PAO1 bacterial suspension in a logarithmic growth phase was added to 50 mL of sterile LB liquid culture medium to reach a final concentration of 10^6 CFU/mL for the bacterial solution. Citronellol (β-citronellol) was added to reach the final concentrations of 0 (three biological replicates in the control group were named A1, A2, and A3, respectively) and 1.25 μL/mL (three biological replicates in the test groups were named B1, B2, B3). Each group was cultured at 37° C. and 180 rpm for 5 h, and centrifuged to collect bacteria, which were then quick-frozen at −80° C. for later use.
Total RNAs were extracted from the bacteria by a Trizol (Thermo Fisher Scientific) kit.
After extraction, the purity of the RNAs were detected with an ultra-micro spectrophotometer (Implen, Munich, Germany). An A260/A280 value of each RNA sample should be between 1.8 and 2.0. Reverse transcription and real-time fluorescent quantitative PCR amplification were carried out by using a PrimeScript RT Master Mix kit (Takara, Dalian, China) and an ETC 811 PCR instrument (Eastwin Life Sciences, Inc.). A q-PCR reaction system included Takara SYBR Premix Ex TaqII (Tli RNaseH Plus) (Code No. RR820A), and PCR procedures included: pre-denaturation at 95° C. for 30 s; and denaturation at 95° C. for 5 s and annealing at 60° C. for 34 s, 40 cycles. Based on 10 gene sequences published on the website of GenBank, primers for q-PCR were designed by using software Primer Premier 5.0, and at the same time, a 16S rRNA gene was used as an internal reference gene.

SMILES: CC(C)=CCCC(C)CCO (stereo not drawn) [citronellol, β-citronellol]
- time point when the absorbance value of the culture solution differs greatly (time to maximum absorbance) ([1]; 0.313 μL/mL): 26 h
- time point when the absorbance value of the culture solution differs greatly (time to maximum absorbance) ([1]; 0.625 μL/mL): 37 h
- time point when the absorbance value of the culture solution differs greatly (time to maximum absorbance) ([1]; 1.25 μL/mL): 39 h
- time point when the absorbance value of the culture solution differs greatly (time to maximum absorbance) ([1]; 2.5 μL/mL): 48 h
- inhibitory effect on the growth of PAO1 ([1]; citronellol at 0.313, 0.625, 1.25 and 2.5 μL/mL, LB, 37° C., 3 days, OD600): a certain yet weak inhibitory effect
- difference in lag phase and logarithmic growth phase on the PAO1 growth curves ([1]; citronellol treatment groups at different concentrations (0.313-2.5 μL/mL)): no significant difference
- expression of signaling molecule receptor protein gene lasR [2]: significantly up-regulated
- expression of signaling molecule receptor protein gene pqsR [2]: significantly down-regulated
- expression of signaling molecule synthase gene lasI [2]: significantly up-regulated
- expression of signaling molecule synthase gene pgsA [2]: significantly down-regulated
- transcription level of lasA [2]: up-regulated, but with a less significant change
- transcription level of signaling molecule receptor protein gene rhIR [2]: significantly up-regulated
- transcription level of signaling molecule synthase gene rhII [2]: changes a little
- transcription level of toxA [2]: significantly up-regulated
- transcription of virulence gene chiC [2]: inhibited
- transcription of virulence gene lasB [2]: inhibited
- transcription of virulence gene phzM [2]: inhibited
- transcription of virulence gene psIB [2]: inhibited
